{
  "source": "patent US8192962B2",
  "about": "“Processes for detecting toxic substances” (Daikin Industries, Ltd., priority 2001, dated 2012)",
  "test_system": "Mitochondria-located protein genes",
  "test": "DNA chip mRNA expression in yeast, mitochondria-located protein genes (Table 2)",
  "type": "cell-based, Saccharomyces cerevisiae S288C",
  "settings": "cells incubated two hours with the chemical substance",
  "outline": "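S. cerevisiae S288C grown at 25° C. in YPD to log phase, then exposed 2 h to a toxicant at a growth-inhibiting, non-lethal concentration; untreated cells as control. Poly(A) mRNA reverse-transcribed with Cy3-dUTP or Cy5-dUTP, hybridized >12 h at 65° C. to whole-genome yeast DNA chip; value = fluorescence ratio treated/untreated.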",
  "data": [
    {"substance": "Na2As [(1)]", "values": [
      {"measurement": "The level of expressed mRNA in the presence of chemical substance/The level of expressed mRNA in the absence of chemical substance", "setting": "yeast gene YAL039C", "result": 1.1},
      {"measurement": "The level of expressed mRNA in the presence of chemical substance/The level of expressed mRNA in the absence of chemical substance", "setting": "yeast gene YBL022C", "result": 0.4},
      {"measurement": "The level of expressed mRNA in the presence of chemical substance/The level of expressed mRNA in the absence of chemical substance", "setting": "yeast gene YBL030C", "result": 1.0},
      {"measurement": "The level of expressed mRNA in the presence of chemical substance/The level of expressed mRNA in the absence of chemical substance", "setting": "yeast gene YBL038W", "result": 1.0},
      {"measurement": "The level of expressed mRNA in the presence of chemical substance/The level of expressed mRNA in the absence of chemical substance", "setting": "yeast gene YBL099W", "result": 0.8},
      {"measurement": "The level of expressed mRNA in the presence of chemical substance/The level of expressed mRNA in the absence of chemical substance", "setting": "yeast gene YBR003W", "result": 0.9},
      {"measurement": "The level of expressed mRNA in the presence of chemical substance/The level of expressed mRNA in the absence of chemical substance", "setting": "yeast gene YBR044C", "result": 0.8},
      {"measurement": "The level of expressed mRNA in the presence of chemical substance/The level of expressed mRNA in the absence of chemical substance", "setting": "yeast gene YBR091C", "result": 1.1},
      {"measurement": "The level of expressed mRNA in the presence of chemical substance/The level of expressed mRNA in the absence of chemical substance", "setting": "yeast gene YBR122C", "result": 0.9},
      {"measurement": "The level of expressed mRNA in the presence of chemical substance/The level of expressed mRNA in the absence of chemical substance", "setting": "yeast gene YBR185C", "result": 1.2},
      {"measurement": "The level of expressed mRNA in the presence of chemical substance/The level of expressed mRNA in the absence of chemical substance", "setting": "yeast gene YBR221C", "result": 0.8},
      {"measurement": "The level of expressed mRNA in the presence of chemical substance/The level of expressed mRNA in the absence of chemical substance", "setting": "yeast gene YBR251W", "result": 1.0},
      {"measurement": "The level of expressed mRNA in the presence of chemical substance/The level of expressed mRNA in the absence of chemical substance", "setting": "yeast gene YBR282W", "result": 1.0},
      {"measurement": "The level of expressed mRNA in the presence of chemical substance/The level of expressed mRNA in the absence of chemical substance", "setting": "yeast gene YCL057W", "result": 0.6},
      {"measurement": "The level of expressed mRNA in the presence of chemical substance/The level of expressed mRNA in the absence of chemical substance", "setting": "yeast gene YCR046C", "result": 1.0},
      {"measurement": "The level of expressed mRNA in the presence of chemical substance/The level of expressed mRNA in the absence of chemical substance", "setting": "yeast gene YCR083W", "result": 1.1},
      {"measurement": "The level of expressed mRNA in the presence of chemical substance/The level of expressed mRNA in the absence of chemical substance", "setting": "yeast gene YDL067C", "result": 1.8},
      {"measurement": "The level of expressed mRNA in the presence of chemical substance/The level of expressed mRNA in the absence of chemical substance", "setting": "yeast gene YDL181W", "result": 1.3},
      {"measurement": "The level of expressed mRNA in the presence of chemical substance/The level of expressed mRNA in the absence of chemical substance", "setting": "yeast gene YDL198C", "result": 1.4},
      {"measurement": "The level of expressed mRNA in the presence of chemical substance/The level of expressed mRNA in the absence of chemical substance", "setting": "yeast gene YDR079W", "result": 1.3},
      {"measurement": "The level of expressed mRNA in the presence of chemical substance/The level of expressed mRNA in the absence of chemical substance", "setting": "yeast gene YDR178W", "result": 2.0},
      {"measurement": "The level of expressed mRNA in the presence of chemical substance/The level of expressed mRNA in the absence of chemical substance", "setting": "yeast gene YDR231C", "result": 1.1},
      {"measurement": "The level of expressed mRNA in the presence of chemical substance/The level of expressed mRNA in the absence of chemical substance", "setting": "yeast gene YDR258C", "result": 1.6},
      {"measurement": "The level of expressed mRNA in the presence of chemical substance/The level of expressed mRNA in the absence of chemical substance", "setting": "yeast gene YDR298C", "result": 1.3},
      {"measurement": "The level of expressed mRNA in the presence of chemical substance/The level of expressed mRNA in the absence of chemical substance", "setting": "yeast gene YDR347W", "result": 1.1},
      {"measurement": "The level of expressed mRNA in the presence of chemical substance/The level of expressed mRNA in the absence of chemical substance", "setting": "yeast gene YDR377W", "result": 1.3},
      {"measurement": "The level of expressed mRNA in the presence of chemical substance/The level of expressed mRNA in the absence of chemical substance", "setting": "yeast gene YDR529C", "result": 1.8},
      {"measurement": "The level of expressed mRNA in the presence of chemical substance/The level of expressed mRNA in the absence of chemical substance", "setting": "yeast gene YEL024W", "result": 1.3},
      {"measurement": "The level of expressed mRNA in the presence of chemical substance/The level of expressed mRNA in the absence of chemical substance", "setting": "yeast gene YEL039C", "result": 1.1},
      {"measurement": "The level of expressed mRNA in the presence of chemical substance/The level of expressed mRNA in the absence of chemical substance", "setting": "yeast gene YER178W", "result": 0.8},
      {"measurement": "The level of expressed mRNA in the presence of chemical substance/The level of expressed mRNA in the absence of chemical substance", "setting": "yeast gene YFL016C", "result": 0.8},
      {"measurement": "The level of expressed mRNA in the presence of chemical substance/The level of expressed mRNA in the absence of chemical substance", "setting": "yeast gene YGL018C", "result": 1.1},
      {"measurement": "The level of expressed mRNA in the presence of chemical substance/The level of expressed mRNA in the absence of chemical substance", "setting": "yeast gene YGL187C", "result": 1.5},
      {"measurement": "The level of expressed mRNA in the presence of chemical substance/The level of expressed mRNA in the absence of chemical substance", "setting": "yeast gene YGL191W", "result": 1.7},
      {"measurement": "The level of expressed mRNA in the presence of chemical substance/The level of expressed mRNA in the absence of chemical substance", "setting": "yeast gene YGR008C", "result": 2.1},
      {"measurement": "The level of expressed mRNA in the presence of chemical substance/The level of expressed mRNA in the absence of chemical substance", "setting": "yeast gene YGR028W", "result": 1.4},
      {"measurement": "The level of expressed mRNA in the presence of chemical substance/The level of expressed mRNA in the absence of chemical substance", "setting": "yeast gene YGR062C", "result": 0.9},
      {"measurement": "The level of expressed mRNA in the presence of chemical substance/The level of expressed mRNA in the absence of chemical substance", "setting": "yeast gene YGR076C", "result": 1.3},
      {"measurement": "The level of expressed mRNA in the presence of chemical substance/The level of expressed mRNA in the absence of chemical substance", "setting": "yeast gene YGR082W", "result": 1.0},
      {"measurement": "The level of expressed mRNA in the presence of chemical substance/The level of expressed mRNA in the absence of chemical substance", "setting": "yeast gene YGR174C", "result": 1.1},
      {"measurement": "The level of expressed mRNA in the presence of chemical substance/The level of expressed mRNA in the absence of chemical substance", "setting": "yeast gene YGR244C", "result": 1.0},
      {"measurement": "The level of expressed mRNA in the presence of chemical substance/The level of expressed mRNA in the absence of chemical substance", "setting": "yeast gene YHR008C", "result": 1.3},
      {"measurement": "The level of expressed mRNA in the presence of chemical substance/The level of expressed mRNA in the absence of chemical substance", "setting": "yeast gene YIL155C", "result": 1.0},
      {"measurement": "The level of expressed mRNA in the presence of chemical substance/The level of expressed mRNA in the absence of chemical substance", "setting": "yeast gene YJL096W", "result": 1.0},
      {"measurement": "The level of expressed mRNA in the presence of chemical substance/The level of expressed mRNA in the absence of chemical substance", "setting": "yeast gene YJL102W", "result": 1.1},
      {"measurement": "The level of expressed mRNA in the presence of chemical substance/The level of expressed mRNA in the absence of chemical substance", "setting": "yeast gene YJL133W", "result": 1.0},
      {"measurement": "The level of expressed mRNA in the presence of chemical substance/The level of expressed mRNA in the absence of chemical substance", "setting": "yeast gene YJL166W", "result": 2.1},
      {"measurement": "The level of expressed mRNA in the presence of chemical substance/The level of expressed mRNA in the absence of chemical substance", "setting": "yeast gene YJL180C", "result": 0.9},
      {"measurement": "The level of expressed mRNA in the presence of chemical substance/The level of expressed mRNA in the absence of chemical substance", "setting": "yeast gene YJR045C", "result": 0.5},
      {"measurement": "The level of expressed mRNA in the presence of chemical substance/The level of expressed mRNA in the absence of chemical substance", "setting": "yeast gene YJR077C", "result": 1.1}
    ]}
  ]
}
